From patent US20020111274A1, “1-alkyl-3-[1-(substituted phenyl) benzotriazol-6-yl] uracils” (BASF Aktiengesellschaft, priority 2000, published 2002)

Key:
Set-up in all cases: scale not given here
GLXMAW Soybean, Williams [1] = experiment: Preemergence herbicidal evaluation, GLXMAW; format: in vivo, Glycine max, (L.) Merr. cv Williams; settings: preemergence
In short: (§1)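 Seeds mixed with potting soil were planted on about one inch of soil in cups, then sprayed with the test compound in aqueous acetone at roughly 0.013 to 0.800 kg per hectare. Plants were kept under standard greenhouse care and injury was rated four to five weeks after treatment.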

CASOB Sicklepod [2] = experiment: Preemergence herbicidal evaluation, CASOB; format: in vivo, Cassia obtusifolia, L.; settings: preemergence
In short: as §1

ORYSAT Rice, Tebonnet [3] = experiment: Preemergence herbicidal evaluation, ORYSAT; format: in vivo, Oryza sativa, (L.); settings: preemergence
In short: as §1

CASOB Sicklepod [4] = experiment: Postemergence herbicidal evaluation, CASOB; format: in vivo, Cassia obtusifolia, L.; settings: postemergence spray, rated about two-three weeks after treatment
In short: (§2)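 For this test, compound in an 80/20 acetone/water vehicle with 1.0% seed oil was sprayed over two-week-old seedlings at about 0.006 to 0.400 kg per hectare. Injury was assessed visually two to three weeks on.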

ORYSAT Rice, Tebonnet [5] = experiment: Postemergence herbicidal evaluation, ORYSAT; format: in vivo, Oryza sativa, (L.); settings: postemergence spray, rated about two-three weeks after treatment
In short: as §2

ECHOG Barnyardgrass [6] = experiment: Postemergence herbicidal evaluation, ECHOG; format: in vivo, Echinochloa crus-galli, (L.) Beau; settings: postemergence spray, rated about two-three weeks after treatment
In short: as §2

AMBEL Ragweed, Common [7] = experiment: Postemergence herbicidal evaluation, AMBEL; format: in vivo, Ambrosia artemisifolia, L.; settings: postemergence spray, rated about two-three weeks after treatment
In short: as §2

GLXMAW Soybean, Williams [8] = experiment: Postemergence herbicidal evaluation, GLXMAW; format: in vivo, Glycine max, (L.) Merr. cv Williams; settings: postemergence spray, rated about two-three weeks after treatment
In short: as §2

[9] = tested on: TRZAWR Wheat, Winter, cv Riband; experiment: Postemergence herbicidal evaluation, TRZAWR; format: in vivo, Triticum aestivum; settings: postemergence spray, rated about two-three weeks after treatment
In short: as §2

[10] = tested on: CHEAL Lambsquarters, Common; experiment: Preemergence herbicidal evaluation, CHEAL; format: in vivo, Chenopodium album, L.; settings: preemergence
In short: as §1

[11] = tested on: TRZAWR Wheat, Winter, cv Riband; experiment: Preemergence herbicidal evaluation, TRZAWR; format: in vivo, Triticum aestivum; settings: preemergence
In short: as §1

SETVI Foxtail, Green [12] = experiment: Preemergence herbicidal evaluation, SETVI; format: in vivo, Setaria viridis, (L.) Beau; settings: preemergence
In short: as §1

GALAP Galium [13] = experiment: Preemergence herbicidal evaluation, GALAP; format: in vivo, Galium aparine; settings: preemergence
In short: as §1

SETVI Foxtail, Green [14] = experiment: Postemergence herbicidal evaluation, SETVI; format: in vivo, Setaria viridis, (L.) Beau; settings: postemergence spray, rated about two-three weeks after treatment
In short: as §2

ABUTH Velvetleaf [15] = experiment: Preemergence herbicidal evaluation, ABUTH; format: in vivo, Abutilon theophrasti, Medic.; settings: preemergence
In short: as §1

[16] = tested on: CHEAL Lambsquarters, Common; experiment: Postemergence herbicidal evaluation, CHEAL; format: in vivo, Chenopodium album, L.; settings: postemergence spray, rated about two-three weeks after treatment
In short: as §2

AMBEL Ragweed, Common [17] = experiment: Preemergence herbicidal evaluation, AMBEL; format: in vivo, Ambrosia artemisifolia, L.; settings: preemergence
In short: as §1

ECHOG Barnyardgrass [18] = experiment: Preemergence herbicidal evaluation, ECHOG; format: in vivo, Echinochloa crus-galli, (L.) Beau; settings: preemergence
In short: as §1

GALAP Galium [19] = experiment: Postemergence herbicidal evaluation, GALAP; format: in vivo, Galium aparine; settings: postemergence spray, rated about two-three weeks after treatment
In short: as §2

ABUTH Velvetleaf [20] = experiment: Postemergence herbicidal evaluation, ABUTH; format: in vivo, Abutilon theophrasti, Medic.; settings: postemergence spray, rated about two-three weeks after treatment
In short: as §2

[21] = tested on: IPOHE Morningglory, Ivyleaf; experiment: Postemergence herbicidal evaluation, IPOHE; format: in vivo, Ipomoea hederacea, (L.) Jacq.; settings: postemergence spray, rated about two-three weeks after treatment
In short: as §2

ZEAMX Corn, Field [22] = experiment: Postemergence herbicidal evaluation, ZEAMX; format: in vivo, Zea mays, L. (Sammel-Bezeichnung); settings: postemergence spray, rated about two-three weeks after treatment
In short: as §2

[23] = tested on: IPOHE Morningglory, Ivyleaf; experiment: Preemergence herbicidal evaluation, IPOHE; format: in vivo, Ipomoea hederacea, (L.) Jacq.; settings: preemergence
In short: as §1

ZEAMX Corn, Field [24] = experiment: Preemergence herbicidal evaluation, ZEAMX; format: in vivo, Zea mays, L. (Sammel-Bezeichnung); settings: preemergence
In short: as §1

COc1ccc(C)c(-n2nnc3cc(F)c(-n4c(=O)cc(C(F)(F)F)n(C)c4=O)cc32)c1 [Example 22]
GLXMAW herbicidal rating (GLXMAW Soybean, Williams [1]; rate 0.016 kg/ha): 0.0 | GLXMAW herbicidal rating (GLXMAW Soybean, Williams [1]; rate 0.032 kg/ha): 0.0 | GLXMAW herbicidal rating (GLXMAW Soybean, Williams [1]; rate 0.062 kg/ha): 0.0 | GLXMAW herbicidal rating (GLXMAW Soybean, Williams [1]; rate 0.125 kg/ha): 0.0 | CASOB herbicidal rating (CASOB Sicklepod [2]; rate 0.016 kg/ha): 0.0 | CASOB herbicidal rating (CASOB Sicklepod [2]; rate 0.032 kg/ha): 0.0 | CASOB herbicidal rating (CASOB Sicklepod [2]; rate 0.062 kg/ha): 0.0 | CASOB herbicidal rating (CASOB Sicklepod [2]; rate 0.125 kg/ha): 0.0 | ORYSAT herbicidal rating (ORYSAT Rice, Tebonnet [3]; rate 0.016 kg/ha): 0.0 | ORYSAT herbicidal rating (ORYSAT Rice, Tebonnet [3]; rate 0.032 kg/ha): 0.0 | ORYSAT herbicidal rating (ORYSAT Rice, Tebonnet [3]; rate 0.062 kg/ha): 0.0 | ORYSAT herbicidal rating (ORYSAT Rice, Tebonnet [3]; rate 0.125 kg/ha): 0.0 | Postemergence herbicidal rating CASOB (CASOB Sicklepod [4]; 0.008 kg/ha): 0.0 | Postemergence herbicidal rating CASOB (CASOB Sicklepod [4]; 0.016 kg/ha): 0.0 | Postemergence herbicidal rating CASOB (CASOB Sicklepod [4]; 0.032 kg/ha): 0.0 | Postemergence herbicidal rating CASOB (CASOB Sicklepod [4]; 0.062 kg/ha): 0.0 | Postemergence herbicidal rating ORYSAT (ORYSAT Rice, Tebonnet [5]; 0.008 kg/ha): 2.0 | Postemergence herbicidal rating ORYSAT (ORYSAT Rice, Tebonnet [5]; 0.016 kg/ha): 2.5 | Postemergence herbicidal rating ORYSAT (ORYSAT Rice, Tebonnet [5]; 0.032 kg/ha): 3.0 | Postemergence herbicidal rating ORYSAT (ORYSAT Rice, Tebonnet [5]; 0.062 kg/ha): 3.0 | Postemergence herbicidal rating ECHCG (ECHOG Barnyardgrass [6]; 0.008 kg/ha): 0.0 | Postemergence herbicidal rating ECHCG (ECHOG Barnyardgrass [6]; 0.016 kg/ha): 0.0 | Postemergence herbicidal rating ECHCG (ECHOG Barnyardgrass [6]; 0.032 kg/ha): 0.0 | Postemergence herbicidal rating ECHCG (ECHOG Barnyardgrass [6]; 0.062 kg/ha): 0.0 | Postemergence herbicidal rating AMBEL (AMBEL Ragweed, Common [7]; 0.008 kg/ha): 0.0 | Postemergence herbicidal rating AMBEL (AMBEL Ragweed, Common [7]; 0.016 kg/ha): 0.0 | Postemergence herbicidal rating AMBEL (AMBEL Ragweed, Common [7]; 0.032 kg/ha): 2.0 | Postemergence herbicidal rating AMBEL (AMBEL Ragweed, Common [7]; 0.062 kg/ha): 3.0 | Postemergence herbicidal rating GLXMAW (GLXMAW Soybean, Williams [8]; 0.008 kg/ha): 4.0 | Postemergence herbicidal rating GLXMAW (GLXMAW Soybean, Williams [8]; 0.016 kg/ha): 4.5 | Postemergence herbicidal rating GLXMAW (GLXMAW Soybean, Williams [8]; 0.032 kg/ha): 4.0 | Postemergence herbicidal rating GLXMAW (GLXMAW Soybean, Williams [8]; 0.062 kg/ha): 5.0 | Postemergence herbicidal rating TRZAWR ([9]; 0.008 kg/ha): 3.0 | Postemergence herbicidal rating TRZAWR ([9]; 0.016 kg/ha): 3.5 | Postemergence herbicidal rating TRZAWR ([9]; 0.032 kg/ha): 4.0 | Postemergence herbicidal rating TRZAWR ([9]; 0.062 kg/ha): 4.5 | CHEAL herbicidal rating ([10]; rate 0.016 kg/ha): 9.0 | CHEAL herbicidal rating ([10]; rate 0.032 kg/ha): 9.0 | CHEAL herbicidal rating ([10]; rate 0.062 kg/ha): 9.0 | CHEAL herbicidal rating ([10]; rate 0.125 kg/ha): 9.0 | TRZAWR herbicidal rating ([11]; rate 0.016 kg/ha): 0.0 | TRZAWR herbicidal rating ([11]; rate 0.032 kg/ha): 1.0 | TRZAWR herbicidal rating ([11]; rate 0.062 kg/ha): 2.0 | TRZAWR herbicidal rating ([11]; rate 0.125 kg/ha): 4.0 | SETVI herbicidal rating (SETVI Foxtail, Green [12]; rate 0.016 kg/ha): 0.0 | SETVI herbicidal rating (SETVI Foxtail, Green [12]; rate 0.032 kg/ha): 2.0 | SETVI herbicidal rating (SETVI Foxtail, Green [12]; rate 0.062 kg/ha): 7.0 | SETVI herbicidal rating (SETVI Foxtail, Green [12]; rate 0.125 kg/ha): 9.0 | GALAP herbicidal rating (GALAP Galium [13]; rate 0.016 kg/ha): 0.0 | GALAP herbicidal rating (GALAP Galium [13]; rate 0.032 kg/ha): 0.0 | GALAP herbicidal rating (GALAP Galium [13]; rate 0.062 kg/ha): 0.0 | GALAP herbicidal rating (GALAP Galium [13]; rate 0.125 kg/ha): 0.0 | Postemergence herbicidal rating SETVI (SETVI Foxtail, Green [14]; 0.008 kg/ha): 0.0 | Postemergence herbicidal rating SETVI (SETVI Foxtail, Green [14]; 0.016 kg/ha): 0.0 | Postemergence herbicidal rating SETVI (SETVI Foxtail, Green [14]; 0.032 kg/ha): 0.0 | Postemergence herbicidal rating SETVI (SETVI Foxtail, Green [14]; 0.062 kg/ha): 0.0 | ABUTH herbicidal rating (ABUTH Velvetleaf [15]; rate 0.016 kg/ha): 0.0 | ABUTH herbicidal rating (ABUTH Velvetleaf [15]; rate 0.032 kg/ha): 9.0 | ABUTH herbicidal rating (ABUTH Velvetleaf [15]; rate 0.062 kg/ha): 9.0 | ABUTH herbicidal rating (ABUTH Velvetleaf [15]; rate 0.125 kg/ha): 7.0 | Postemergence herbicidal rating CHEAL ([16]; 0.008 kg/ha): 9.0 | Postemergence herbicidal rating CHEAL ([16]; 0.016 kg/ha): 9.0 | Postemergence herbicidal rating CHEAL ([16]; 0.032 kg/ha): 3.0 | Postemergence herbicidal rating CHEAL ([16]; 0.062 kg/ha): 4.0 | AMBEL herbicidal rating (AMBEL Ragweed, Common [17]; rate 0.016 kg/ha): 0.0 | AMBEL herbicidal rating (AMBEL Ragweed, Common [17]; rate 0.032 kg/ha): 0.0 | AMBEL herbicidal rating (AMBEL Ragweed, Common [17]; rate 0.062 kg/ha): 0.0 | AMBEL herbicidal rating (AMBEL Ragweed, Common [17]; rate 0.125 kg/ha): 0.0 | ECHCG herbicidal rating (ECHOG Barnyardgrass [18]; rate 0.016 kg/ha): 0.0 | ECHCG herbicidal rating (ECHOG Barnyardgrass [18]; rate 0.032 kg/ha): 0.0 | ECHCG herbicidal rating (ECHOG Barnyardgrass [18]; rate 0.062 kg/ha): 2.0 | ECHCG herbicidal rating (ECHOG Barnyardgrass [18]; rate 0.125 kg/ha): 7.0 | Postemergence herbicidal rating GALAP (GALAP Galium [19]; 0.008 kg/ha): 0.0 | Postemergence herbicidal rating GALAP (GALAP Galium [19]; 0.016 kg/ha): 0.0 | Postemergence herbicidal rating GALAP (GALAP Galium [19]; 0.032 kg/ha): 3.0 | Postemergence herbicidal rating GALAP (GALAP Galium [19]; 0.062 kg/ha): 5.0 | Postemergence herbicidal rating ABUTH (ABUTH Velvetleaf [20]; 0.008 kg/ha): 9.0 | Postemergence herbicidal rating ABUTH (ABUTH Velvetleaf [20]; 0.016 kg/ha): 9.0 | Postemergence herbicidal rating ABUTH (ABUTH Velvetleaf [20]; 0.032 kg/ha): 9.0 | Postemergence herbicidal rating ABUTH (ABUTH Velvetleaf [20]; 0.062 kg/ha): 9.0 | Postemergence herbicidal rating IPOHE ([21]; 0.008 kg/ha): 2.0 | Postemergence herbicidal rating IPOHE ([21]; 0.016 kg/ha): 2.0 | Postemergence herbicidal rating IPOHE ([21]; 0.032 kg/ha): 9.0 | Postemergence herbicidal rating IPOHE ([21]; 0.062 kg/ha): 2.0 | Postemergence herbicidal rating ZEAMX (ZEAMX Corn, Field [22]; 0.008 kg/ha): 4.5 | Postemergence herbicidal rating ZEAMX (ZEAMX Corn, Field [22]; 0.016 kg/ha): 4.5 | Postemergence herbicidal rating ZEAMX (ZEAMX Corn, Field [22]; 0.032 kg/ha): 4.0 | Postemergence herbicidal rating ZEAMX (ZEAMX Corn, Field [22]; 0.062 kg/ha): 4.5 | IPOHE herbicidal rating ([23]; rate 0.016 kg/ha): 0.0 | IPOHE herbicidal rating ([23]; rate 0.032 kg/ha): 0.0 | IPOHE herbicidal rating ([23]; rate 0.062 kg/ha): 0.0 | IPOHE herbicidal rating ([23]; rate 0.125 kg/ha): 0.0 | ZEAMX herbicidal rating (ZEAMX Corn, Field [24]; rate 0.016 kg/ha): 0.0 | ZEAMX herbicidal rating (ZEAMX Corn, Field [24]; rate 0.032 kg/ha): 2.0 | ZEAMX herbicidal rating (ZEAMX Corn, Field [24]; rate 0.062 kg/ha): 4.0 | ZEAMX herbicidal rating (ZEAMX Corn, Field [24]; rate 0.125 kg/ha): 6.0
